Source: patent publication US20150157604A1, “PHARMACEUTICAL COMPOSITION FOR THE PROPHYLAXIS AND TREATMENT OF PSYCHOLOGICAL, BEHAVIORAL AND COGNITIVE DISORDERS” (LTD << VALENTA-INTELLEKT >>, priority 2012, published 2015)

Columns and labels:
cerebral edema = details: rats; second administration; cited from earlier work
[1] = cited from earlier work
[2] = test system: patients with mixed dementia and patients with Alzheimer's disease; test: Study of pharmacological activity: half-year neurological study (MMSE, visual and aural-speech memory, clock drawing test, Schulte Table); type: in vivo, human
Text: The subjects under the study have been 25 patients with mixed dementia and 12 patients with Alzheimer's disease. The average age of the patients is 70±3 years. Dementia has been diagnosed in accordance with the dementia criteria under ICD-10 [International statistic classification of diseases and problems relating to health. Tenth revision (ICD-10). V.1 (Part 1). Geneva: WHO, 1995; p. 315, 510-1]. Dimentia severity has been assessed according to Clinical Dementia Rating Scale—CDR [Hughes C P, Berg L, Danziger W L et al. A new clinical scale for the staging of dementia. Brit J Psychiatry 1982; 140: 566-72]. In the group of patients with mixed dementia it is 1.2±0.3, and in the group with Alzheimer's disease—1.1±0.36. All the patients have been subdivided into two groups. The first group has received […] of memantine once a day. The second group received capsules according to Example 4. A complex neurological study has been conducted with the patients for half a year, the study included brief evaluation of mental status (MMSE), a test for visual and aural-speech memory under the dementia scale, the clock drawing test as well as the test for attention—Schulte Table. The outcome has been processed with the use of the statistical package for social sciences (SPSS), Version 10.0.

[3] = test system: dopamine concentration in the forebrain regions; details: cited from earlier work

Compound	reduction of the volume of cerebral edema (cerebral edema)	time to concentration peak in the brain ([1]; after a single dosing)	half-life ([1]; in vivo)	increase of clock drawing test ([2]; in 6 months)	increase of total score of the mental status evaluation (MMSE) ([2]; in 6 months, patients with mixed dementia or Alzheimer's disease)	lowering of Schulte test ([2]; in 6 months, test for attention)	increase of visual memory ([2]; in 6 months, test under the dementia scale)	patients with positive therapeutic effect ([2]; patients with Alzheimer's disease)	patients with positive therapeutic effect ([2]; patients with mixed dementia)	side effects ([2]; patients, half-year study)	dopamine concentration ([3]; after a single dosing)	rise of dopamine concentration in the forebrain regions ([3]; during prolonged administration)
COc1ccc2[nH]cc(CCNC(C)=O)c2c1 [melatonin, N-acetyl-5-methoxytriptamine]	2 times											
CC12CC3CC(C)(C1)CC(N)(C3)C2 [memantine, 1-amino-3,5-dimethyladamantan]		one	approximately 100 hours	0.2±0.1	1.5±0.3	20.5±3.6	0.5±0.2	25%	86%	increase in the intracranial pressure was observed	remains unchanged	≥ 10 times
